# Test results taken from patent publication US12161669B2, “Compositions and methods for cell targeting therapies” (UMC UTRECHT HOLDING B.V., priority 2017, dated 2024).
# Legend:
# Type in all cases: cell-based
# Daudi = experiment: IFNγ ELISA of γ9δ2T cell clones co-incubated with Daudi
# Experimental: PBMCs were stained with monoclonal antibody (mAb) to Vδ2 (Vδ2-FITC clone B6). The mAb-positive fraction was either sorted in bulk, expanded on REP, and thereafter cloned by limiting dilution (donor A) or single cell-sorted using FACS sort with collection of single cells in 96 well plates (donors B, C). All FACS sorts were performed on ARIAII (BD). Eight to twelve rounds of expansion on REP preceded functional testing. As soon as the cells expanded to sufficient numbers functional testing was performed: 5*10^4 T cells were incubated overnight together with target cells at 1:1 E:T ratio in DMEM supplemented with 10% FCS and 1% pen/strep, without or in the presence of 100 uM Pamidronate Disodium salt (Calbiochem Cat #506600), supernatants were harvested the day after, and IFNγ concentration was measured using ELISA (eBioscience Ready-Set-Go! ELISA kit, Invitrogen Cat #88731688).
# In order to assess on a broader range the impact of individual γ9δ2TCR on the functional activity of individual γ92δT cell clones γδ T cell clones were isolated by limiting dilution or FACS sorting. In vitro antitumor activity was determined by IFNγ production against the tumor cell line Daudi. Substantial antitumor functional heterogeneity was observed among the γ9δ2T cell clones (N=57) isolated from 4 healthy donors, with approximately 60% of the clones being reactive to the tumor cell line Daudi (FIG. 13A), when choosing a cut-off of 30 pg/ml for reliable measurement of IFNγ concentration. Bisphopshonates such as pamidronate (PAM) can enhance activity of γ9δ2T cells through induction of CD277J, facilitated by RhoB and sensed by the γ9δ2TCR. In the presence of 100 μM PAM the reactivity of investigated γ9δ2T cell clones was on average 10-fold enhanced (range 0.7-37.3; median 8.1) with >95% of the clones showing reactivity above the threshold when PAM was added (FIG. 13A). In order to assess whether activity profiles where exclusively observed for Daudi cells or also valid for other targets, the cell line HEK293FT, an additional well-characterized γδT cell target, was co-incubated with the isolated γδT cell clones. HEK293FT cell line elicited much lower cytokine secretion in the absence of PAM with only approximately 30% of γ9δ2T cell clones secreting IFNγ above cut-off (FIG. 13B).
# RhoA = experiment: Intracellular RhoA distribution by confocal microscopy in EBV-LCL 48; conditions: EBV-LCL 48, with or without ABP
# RhoB and CD277 = experiment: Proximity ligation assay of RhoB and CD277 in EBV-LCL 48 cells; conditions: ABP pretreated vs medium
# HEK293FT tumor cells = experiment: Tumor cell-T cell conjugate formation with HEK293FT cells (confocal); conditions: Jurma cells expressing γδTCRs, 100 μM PAM
# Experimental: HEK293FT cells were seeded in μ-slide poly-L-lysine pre coated chamber (Ibidi) to adhere overnight. Next day cells were treated with 100 μM PAM for one hour at 37° C. TEGs were added onto HEK293FT cells and incubated at 37° C. for 30-120 minutes. After co-incubation chambers were immediately placed onto ice and fixed with 4% PFA for 30 minutes. Samples were blocked with 1% BSA/FCS and labeled with CD3ε-Alexa Fluor 647 (BD Biosciences) at 2 μg/mL for two hours at room temperature, and finally fixed with 1% PFA+DAPI. Samples were imaged with Zeiss LSM-710 and analyzed with Volocity software (PerkinElmer). In order to quantify the number of conjugates between HEK293FT and TEG cells we calculated the ratio between CD3c positive objects and DAPI positive objects on each image taken. To analyse gamma delta TCR enrichment into the immunological synapse, we calculated the ratio of CD3c signal enrichment inside the contact area versus outside of contact area of the target and effector cell on 63× magnified images. To further assess whether distinct functional avidity of γ9δ2TCRs when expressed in the TEG format is regulated by their ability to mediate binding of TEGs to tumor cell targets a more dynamic model was utilized. […] The number of tumor cell-T cell conjugates was assessed. […]
structure (smiles),measurement,setting,value
NCCC(O)(P(=O)(O)O)P(=O)(O)O [pamidronate],clones showing reactivity above the threshold,"Daudi; 100 μM PAM added, cut-off 30 pg/ml IFNγ",> 95%
same,"enhancement of reactivity of γ9δ2T cell clones, average",Daudi; 100 μM PAM vs no PAM,10 fold
same,"enhancement of reactivity of γ9δ2T cell clones, median",Daudi; 100 μM PAM vs no PAM,8.1 fold
same,"enhancement of reactivity of γ9δ2T cell clones, range",Daudi; 100 μM PAM vs no PAM,0.7-37.3 fold
same,intracellular distribution of RhoA,RhoA,did not change
same,proximity of RhoB and CD277 (PLA signal),RhoB and CD277,in close proximity
same,"number of tumor cell-T cell conjugates, effect of PAM",HEK293FT tumor cells,increased the number of conjugates
